This is an account of results in patent US10994010B2, “Selective targeting of the CD40L/Mac-1 interaction by small peptide inhibitors and its use for the treatment of inflammation and atherogenesis” (Universitaetsklinikum Freiburg, priority 2010, dated 2021).

The test system of data set [1] is human umbilical vein endothelial cells (HUVECs). The experiment in a line: Cytotoxicity and apoptosis in cultivated HUVECs (caspase 3/7 activity, LDH release). It counts as cell-based. As for the experimental part: (§1) (FIG. 6A, FIG. 6B) Macrophages recruited to the peritoneal cavity by thioglycollate where challenged by intraperitoneal injections of either cM7, scM7 or the blocking anti-Mac-1 antibody M1/70. […] (FIG. 4C, FIG. 4D) In vitro cultivated human umbilical vein endothelial cells (HUVECs) were incubated with cM7, scM7 or a combination of CD40L or a blocking anti-CD40 antibody. […] Data are presented as mean±SEM of at least 3 independent experiments.

The subject of another data set is peritoneal macrophages. The data set is described as follows: Apoptosis and necrosis of thioglycollate-recruited peritoneal macrophages in vivo (annexin V, propidium iodide). Particulars: intraperitoneal injection, after 4 hours. As for the experimental part:
as §1

The next data set deals with LDLr−/− mice. The data set is described as follows: Atherogenesis study, high-cholesterol diet 20 weeks. It counts as in vivo. As for the experimental part: Atherogenesis study. Eight-week-old male LDL-receptor-deficient (LDLr^−/−) mice (Jackson Laboratories) consuming a high-cholesterol diet (HCD) were treated with intraperitoneal injections of the peptides cM7, scM7 (Peptide Specialty Laboratory) in a dose of 100 μg, or sterile saline three times a week. After 20 weeks blood samples were taken for flow cytometric analysis of leukocyte subpopulations, cholesterol and triglyceride plasma levels, as well as for the determination of plasma cytokines and chemokines. Blood pressure was determined by a non-invasive blood pressure measurement (NIBP, Harvard Apparatus). Mice were euthanized, and aortic roots and arches were frozen in OCT (OCT compound; Tissue-Tek). Thoracic and abdominal aortas were fixed in 10% buffered formalin. Serial cryostat sections (6 μm) of mouse aortic tissues were fixed in acetone, and air-dried. Nonspecific binding was blocked with 5% species-appropriate normal serum (Vector Laboratories). Sections were then incubated with primary antibodies diluted in phosphate-buffered saline, supplemented with 5% species-appropriate normal serum. Incubation with secondary antibodies was followed by avidin-biotin complex (ABC, Vector Laboratories). Antibody binding was visualized with 3-amino-9-ethylcarbazole (AEC; Dako), followed by counterstaining with Gill's hematoxylin solution (Sigma-Aldrich). Control stainings included staining with the respective IgG isotypes (Pharmingen, Dako). Antibodies used were rat anti-mouse Mac-3 for macrophage specific staining, anti α-actin for smooth muscle cell specific staining (Dako). For the visualization of Type I Collagen, Formalin-fixed frozen sections were incubated for 4 hours in a freshly prepared 0.1% solution of picrosirius red (Polysciences) in saturated aqueous picric acid. After rinsing in 0.01 N HCl and distilled water, sections were dehydrated in 70% ethanol and mounted in Permount (Vector Laboratories). Picrosirius red staining was analyzed by polarization microscopy. As the color of collagen fibers assessed in the picrosirius red staining depends on the thickness of collagen fibers and changes from green (thin fibers) to yellow, orange, and red (thick fibers), color distribution in stained collagen sections was quantified. Deposition of lipids was determined by oil red O staining after formalin fixation in aortic sections or in en face preparations of the abdominal aorta. To quantify the composition of the aortic lesions, sections of the aortic tissue were analyzed microscopically in all mice. Within the aortic root, lesion areas were analyzed in cross-sections obtained at the level of all 3 leaflets of the aortic valve, immediately proximal to the right coronary artery ostium. The total aortic wall area, lesion area in the aortic root, and the percentage of area stained for macrophages, lipids, SMCs, or collagen were determined via computer-assisted image quantification (ImagePro, Media Cybernetics).

For data set [2], the system named is C57BL/6J mice. The data set is described as follows: Tail bleeding time. Particulars: mouse, in vivo. As for the experimental part:
(§2) Potential side effects were checked in an in vivo thrombosis model. 3-4 weeks old C57BL/6J mice received an intraperitoneal injection of either sterile saline (100 μl), the peptides cM7, scM7, or the indicated antibodies. A mesenteric arteriole was chosen and injured with ferrichloride. Platelets were stained by retroorbital injection of rhodamine […] and visualized through an intravital microscope (AxioScope Vario, Carl Zeiss). Vessel occlusion time and thrombus embolization rate was analyzed. Tail bleeding time was determined as previously reported (Andre et al., Loc. Cit.).

A further data set has as its system TNFα-challenged mice. Particulars: mouse, in vivo. As for the experimental part:
Mice received an intraperitoneal injection 5 hours before surgery of 200 ng of murine TNFα (R&D systems) and 100 μg of peptides dissolved in sterile saline 5 hours before surgery. Mice were anesthetized with an intraperitoneal injection of ketamine hydrochloride (Essex) and xylazin (Bayer) at a dose at 187.5 mg/kg of body weight and 62.5 mg/kg of body weight, respectively. The cremaster muscle was exteriorized as described previously (Iezzi et al., PNAS (2009), pp 876-881). For some experiments a catheter was placed in the jugular vein and peptides were administered during microscopy. The cremaster was superfused with thermo-controlled (36° C.) saline. Mice were placed on a heating pad to maintain body temperature. Videos were taken with an intravital microscope (AxioScope Vario, Carl Zeiss) fitted with a saline immersion objective (WPlan-APOCHROMAT 20x/1,0DIC IR, Carl Zeiss) a high sensitivity camera system (AxioCam MRm, Carl Zeiss) for 30 seconds each. Rolling leukocyte flux was defined as the number of leukocytes moving at a velocity less than erythrocytes. Leukocyte rolling velocity was measured by the average time required for leukocytes to roll over a defined length of the venule at each time point. Adherent leukocytes were defined as cells that remained stationary for at least 30 s. Rolling leukocyte flux, adhering flux were quantified by a blinded investigator.

For data set [3], the system named is C57BL/6J mice. The data set is described as follows: In vivo thrombosis model (ferrichloride injury of mesenteric arteriole). As for the experimental part: as §2
The subject of data set [4] is CD40L-transfected murine fibroblasts. The experiment in a line: Flow cytometry: binding of FITC-cM7 to CD40L- or mock-transfected murine fibroblasts. It counts as cell-based. As for the experimental part: Flow cytometric analysis, platelet activation assays, and quantification of leukocyte-platelet aggregates, were performed as previously described (Zirlik et al., 2007). Binding of cM7 to CD40L-expressing murine fibroblasts was determined by quantification of FITC-coupled cM7. Binding of CD40L to Mac-1 expressing CHO-cells or human leukocytes was performed by incubation with CD40L (10 μg/ml) and subsequent detection with anti-PentaHis antibody (Qiagen).
Flow cytometric analyses, as well as platelet activation assays and quantification of leukocyte-platelet aggregates were performed as previously described (Quezada et al., Ann. Rev. Immunol. (2004), pp 307-328). Briefly, murine blood samples were taken by intracardiac puncture. Red cells were lyzed in 155 mM NH4Cl, 5.7 mM K2HPO4, 0.1 mM EDTA, pH 7.3. […] Antibodies for epitope specific fluorescence-activated cell sorting (FACS Calibur, BD) included anti-CD11b, anti-CD115, anti-Gr-1, anti-CD4, anti-CD8, anti-CD20, anti-CD41, anti-CD62P, anti-CD54, anti-CD102, and anti-CD106 (all from Ebioscience). Binding of cM7 to CD40L- or mock-transfected murine fibroblasts was determined by incubation of FITC-cM7 at the indicated concentrations with cells for 30 min at 37° C. and subsequent quantification of the fluorescence in the FL-1 channel. […]

The target of data set [5] is T1, CD40L binding to Mac-1 I-domain (Homo sapiens, UniProt P29965).
T1 construct: inserting the coding DNA for amino acids E^108 to L^261 in pHOG-21; His (N); trimerization domain (N); made in house
T1 sequence (P29965 108-261): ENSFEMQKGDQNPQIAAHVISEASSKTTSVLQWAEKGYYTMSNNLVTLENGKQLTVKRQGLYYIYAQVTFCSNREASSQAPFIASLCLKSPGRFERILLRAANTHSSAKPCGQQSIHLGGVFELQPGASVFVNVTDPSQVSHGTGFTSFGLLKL
The data set is described as follows: Solid phase binding assay: blocking of CD40L binding to immobilized Mac-1 I-domain by peptides. Particulars: peptides 50 μM. As for the experimental part: Solid phase binding assay. Recombinant CD40L was incubated with immobilized Mac-1 I-domain in the presence or absence of blocking peptides. Binding of sCD40L was detected by addition of anti-cmyc-HRP (Invitrogen), TMB-substrate (Pierce), and colorimetric reaction. Alternatively, CD40L (Provitro) was immobilized, and binding of the recombinant Mac-1 I-domain was quantified by addition of anti-His-Biotin (Qiagen), and HRP-coupled streptavidin (Pierce). For the binding to immobilized peptides, CD40L was biotinylated with the Micro Biotinylation Kit (Sigma). A mixture of equal molarities of all peptides served as the positive control in this assay.
The recombinant Mac-1 I-domain was immobilized in 96-well plates (Nunc) in PBS at 4° C. overnight. After blocking in 2% BSA/PBS and subsequent washing with PBS, recombinant CD40L was added to the wells in the indicated concentrations and incubated for 2 hours at 37° C. Effect of the peptides M1-M8 was assessed by incubating CD40L (10 μg/ml) in the presence of peptides (50 μM). After removing of unbound CD40L by washing with 0.1% Tween-20/PBS, anti-c-myc-HRP (Invitrogen) was added and incubated for 2 hours at room temperature. Binding was quantified by addition of TMB-substrate (Pierce), colorimetric reaction at 450 nm. Alternatively, CD40L without a His-tag (Provitro) was immobilized and blocked as described above. Binding of the recombinant Mac-1 I-domain was quantified by addition of anti-His-Biotin monoclonal antibody (Qiagen), HRP-coupled streptavidin (Pierce) and colorimetric reaction at 450 nm. For the specific binding of the Mac-1 I-domain BSA-coated wells were subtracted from the CD40L-coated. Kd was estimated using a one-site binding hyperbola nonlinear regression model with the Software Prism (Graphpad). For quantification of the binding of CD40L to peptides, peptides were immobilized in 96-well plates overnight at 4° C. in 50 mM sodium carbonate, pH 10.6. CD40L was biotinylated using the Micro-Biotinylation-Kit (Sigma) following the manufacturer's instructions and detected by HRP-coupled streptavidin (Pierce) and colorimetric reaction. A mixture of equal molarities of all peptides served as positive control. Absorbance on BSA-coated wells served as negative control and was subtracted.

Positions of bridges follow the written chain, without caps; N, C: chain ends. Residues, ends and D or L forms follow the SMILES beside them.

As to `CC(C)C[C@@H]1NC(=O)[C@H](CCC(N)=O)NC(=O)[C@H](CCC(=O)O)NC(=O)[C@@H](N)CSSC[C@@H](C(=O)O)NC(=O)[C@H](CC(C)C)NC(=O)[C@H]([C@@H](C)O)NC(=O)[C@H](CCCCN)NC(=O)[C@H](CO)NC(=O)[C@H](CCCCN)NC(=O)[C@H](CCCCN)NC1=O` [cM7] (H-CEQLKKSKTLC-OH; disulfide 1-11 (inferred); N-terminus and C-terminus assumed), the “apoptosis of endothelial cells, LDH-release” value in data set [1] (CD40L primed HUVECs) is reported as “slightly increased in CD40L primed HUVECs”. For the same compound, the “cellular cytotoxicity, caspase 3/7-activity” value in data set [1] (HUVECs, 24 hours) was “did not induce cellular cytotoxicity”. In the data set on peritoneal macrophages, the “apoptotic or necrotic cells in vivo (annexin V binding, propidium iodide loading)” value is listed as “did not cause an increase of apoptotic or necrotic cells in vivo”. In addition, in the data set with LDLr−/− mice (AF), the Leukocytes is on record as 4.54 ± 1.28 ×1000/μl and the Platelets is on record as 486 ± 198 ×1000/μl. Also, the Weight with LDLr−/− mice (AF: after feeding) came out at 35.7 ± 3.8 g. In addition, in the data set with LDLr−/− mice (BF), the Leukocytes is recorded as 11.2 ± 3.1 ×1000/μl and the Platelets is 529 ± 53 ×1000/μl. The Weight in the data set on LDLr−/− mice (BF: before feeding) is reported as 23.4 ± 2.3 g. Moreover, in the data set with LDLr−/− mice (long-term treatment), the “immunologic characteristics (T cells, B cells, cytokines)” value is reported as “Any changes in immunologic characteristics were not observed”. Moreover, the “effect on bleeding time” value in the data set on C57BL/6J mice [2] is reported as “did not affect bleeding time”. For the same compound, in the data set with TNFα-challenged mice, the Heart rate was 628 ± 63 bpm, the Leukocytes was 11.9 ± 2.3 ×1000/μl, the Platelets is on record as 552 ± 174 ×1000/μl and the Systolic blood pressure is reported as 97.6 ± 6.5 mmHg. Also, in the data set on C57BL/6J mice [3] (model of arterial thrombosis), the “effect on vessel occlusion time” value is recorded as “did not prolong vessel occlusion time”. Moreover, the “effect on thromboembolization rate” value with C57BL/6J mice [3] (mouse, in vivo) is reported as “only caused a slight increase in thromboembolization rate”.

For the compound “C-EQLKKSKTL-C (CEQLKKSKTLC; bridge N-C; also: cyclised through the flanking Cys, bond type not given here) [FITC-labeled cM7]”, the “binding to murine fibroblasts over-expressing CD40L” value in data set [4] is recorded as “concentration-dependently bound to murine fibroblasts over-expressing CD40L”. Further, the “binding to mock-transfected fibroblasts” value in data set [4] (control cells) is reported as “but not to respective mock-transfected control cells”.

“DAFRSEKSRQELNTI (therapeutically active peptide) [Peptide M4]”: in data set [5], the “blocking of CD40L / Mac-1 I-domain binding” value is given as “emerged as potential candidate inhibitors”.

Consider “FQVNNFEALKT (therapeutically active peptide) [Peptide M5]”, for which the “blocking of CD40L / Mac-1 I-domain binding” value in data set [5] is on record as “emerged as potential candidate inhibitors”.

In the case of “KFGDPLGYEDVIPEADR (therapeutically active peptide) [Peptide M3]”, the “blocking of CD40L / Mac-1 I-domain binding” value in data set [5] is listed as “emerged as potential candidate inhibitors”.
